Measurements as given in ChEMBL document CHEMBL1275513, “R chi-01, a new family of oxazolidinones that overcome ribosome-based linezolid resistance” (Antimicrob Agents Chemother, 2008).
≈ marks a conversion by molar mass, not a printed value.

Assays:
[1] = target: Bacterial 70S ribosome; assay: Displacement of [3H]puromycin from 70S ribosomal complex in Staphylococcus aureus ATCC 29213 by competitive binding assay
[2] = Inhibition of 50S ribosomal subunit purified from Staphylococcus aureus ATCC 29213 assessed as inhibition of translation using in vitro transcribed mRNA encoding firefly luciferase
[3] = Selectivity ratio of IC50 for […] to IC50 for Staphylococcus aureus ATCC 29213 50S ribosomal subunit
[4] = tested on: Enterococcus faecalis; assay: Antimicrobial activity against Enterococcus faecalis ATCC 29212; format: functional
[5] = tested on: Staphylococcus aureus; assay: Antimicrobial activity against Staphylococcus aureus ATCC 29213; format: functional
[6] = Inhibition of 50S ribosomal subunit purified from linezolid-,erythromycin-resistant Staphylococcus aureus A7820 with G2576U mutation in 23s rRNA assessed as inhibition of translation using in vitro transcribed mRNA encoding firefly luciferase
[7] = target: Bacterial 70S ribosome; assay: Displacement of [3H]chloramphenicol from 70S ribosomal complex in Staphylococcus aureus ATCC 29213 by competitive binding assay
[8] = tested on: Enterococcus faecium; assay: Antimicrobial activity against linezolid-resistant Enterococcus faecium A6349 expressing VanA gene; format: functional
[9] = tested on: Staphylococcus aureus; assay: Antimicrobial activity against linezolid-,erythromycin-resistant Staphylococcus aureus A7820 with G2576U mutation at 23s rRNA; format: functional
[10] = tested on: Enterococcus faecalis; assay: Antimicrobial activity against linezolid-resistant Enterococcus faecalis P5; format: functional

SMILES	IC50 [1] [µM]	IC50 [2] [µM]	ratio [3]	MIC [4] [µg/mL]	MIC [5] [µg/mL]	IC50 [6] [µM]	IC50 [7] [µM]	MIC [8] [µg/mL]	MIC [9] [µg/mL]	MIC [10] [µg/mL]
COc1ccc(C[C@H](N)C(=O)N[C@H]2[C@@H](O)[C@H](n3cnc4c(N(C)C)ncnc43)O[C@@H]2CO)cc1 [PUROMYCIN]	0.9	–	–	–	–	–	–	–	–	–
CSC[S@@+]([O-])CC(CO)NC(=O)/C=C/c1c(C)[nH]c(=O)[nH]c1=O (some centres undefined) [SPARSOMYCIN]	–	≤ 0.02	7	–	–	–	–	–	–	–
CC(=O)NC[C@H]1CN(c2ccc(-c3ccc(CNCCCF)cc3)c(F)c2)C(=O)O1	–	≤ 0.02	> 100	0.5 (≈ 1.2 µM)	1 (≈ 2.4 µM)	0.06	45	1 (≈ 2.4 µM)	8 (≈ 19.2 µM)	2 (≈ 4.79 µM)
O=C(N[C@H](CO)[C@H](O)c1ccc([N+](=O)[O-])cc1)C(Cl)Cl [CHLORAMPHENICOL]	–	7.8	25	8 (≈ 24.8 µM)	8 (≈ 24.8 µM)	54	0.43	24 (≈ 74.3 µM)	64 (≈ 198 µM)	32 (≈ 99 µM)
CC(=O)NC[C@H]1CN(c2ccc(-c3ccc(CN)cc3)c(F)c2)C(=O)O1	–	≤ 0.02	> 100	0.5 (≈ 1.4 µM)	4 (≈ 11.2 µM)	–	58	1 (≈ 2.8 µM)	8 (≈ 22.4 µM)	8 (≈ 22.4 µM)
CC(=O)NC[C@H]1CN(c2ccc(-c3ccc(CNCC(N)=O)cc3)c(F)c2)C(=O)O1	–	≤ 0.02	> 50	0.5 (≈ 1.21 µM)	4 (≈ 9.65 µM)	–	–	1 (≈ 2.41 µM)	8 (≈ 19.3 µM)	8 (≈ 19.3 µM)
CC(=O)NC[C@H]1CN(c2ccc(N3CCOCC3)c(F)c2)C(=O)O1 [LINEZOLID]	920	0.9	> 100	–	–	8.4	1380	16 (≈ 47.4 µM)	64 (≈ 190 µM)	32 (≈ 94.9 µM)
CC(=O)NC[C@H]1CN(c2ccc(-c3ccc(CNC(=N)N)cc3)c(F)c2)C(=O)O1	8.7	≤ 0.02	> 100	2 (≈ 5.01 µM)	2 (≈ 5.01 µM)	0.08	50	2 (≈ 5.01 µM)	8 (≈ 20 µM)	8 (≈ 20 µM)
CC(=O)NC[C@H]1CN(c2ccc(-c3ccc(CNCc4cnn[nH]4)cc3)c(F)c2)C(=O)O1 [RADEZOLID]	–	0.02	> 100	0.25 (≈ 0.57 µM)	1 (≈ 2.28 µM)	0.03	–	0.5 (≈ 1.14 µM)	8 (≈ 18.2 µM)	1 (≈ 2.28 µM)
CS(=O)(=O)c1ccc([C@@H](O)[C@@H](CF)NC(=O)C(Cl)Cl)cc1 [FLORFENICOL]	–	0.7	> 100	4 (≈ 11.2 µM)	8 (≈ 22.3 µM)	16.4	20	16 (≈ 44.7 µM)	64 (≈ 179 µM)	16 (≈ 44.7 µM)
CC(=O)NC[C@H]1CN(c2ccc(-c3ccc(Cn4ncnn4)cc3)c(F)c2)C(=O)O1	–	0.06	23	0.25 (≈ 0.609 µM)	0.5 (≈ 1.22 µM)	–	–	0.5 (≈ 1.22 µM)	1 (≈ 2.44 µM)	1 (≈ 2.44 µM)
CC(=O)NC[C@H]1CN(c2ccc(-c3ccc(Cn4ccnn4)cc3)c(F)c2)C(=O)O1	–	0.13	> 100	0.5 (≈ 1.22 µM)	0.5 (≈ 1.22 µM)	0.21	–	1 (≈ 2.44 µM)	1 (≈ 2.44 µM)	1 (≈ 2.44 µM)
CC(=O)NC[C@H]1CN(c2ccc(-c3ccc(CNC(=O)/C=C/c4c(C)[nH]c(=O)[nH]c4=O)cc3)c(F)c2)C(=O)O1	–	0.09	17	1 (≈ 1.87 µM)	0.25 (≈ 0.467 µM)	0.03	–	1 (≈ 1.87 µM)	8 (≈ 14.9 µM)	16 (≈ 29.9 µM)
